SMILES strings stand for the structures. Several values for one entry are separate records, joined by “and”; a condition that tells them apart may be missing. Equal entries are not always repeated.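 Compound exposure: 48 hours, 5 concentrations, 96-well plates. Here, GI50 denotes the concentration required for 50% inhibition of growth. Definition used: TGI = concentration required for complete inhibition of growth.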

This passage reports TGI and GI50 results from PubChem BioAssay (NCI).

Assay in all cases: NCI tumour cell line growth inhibition, 48 h
The subject of assay [1] is NCI-H226 lung.
In assay [2] the test system is HS 578T breast.
Assay [3] has as its system IGROV1 ovarian.
For assay [4], the system named is SK-MEL-2 melanoma.
Assay [5] deals with BT-549 breast.
In assay [6] the test system is DU-145 prostate.
For assay [7], the system named is NCI-H460 lung.
Assay [8] deals with SK-MEL-5 melanoma.
In assay [9] the test system is HOP-62 NSCLC.
The subject of assay [10] is NCI-H23 lung.

As for `O=C(CN1CCNCCN(CC(=O)N2CCCCC2)CCNCC1)N1CCCCC1`, the TGI in assay [1], in assay [2], in assay [3], in assay [4], in [5] and in assay [6] was over 100 µM each time. The TGI in assay [7], in assay [8] and in assay [9] was over 100 µM each time.
As for `Cc1cc(C)c(C2=NOC(c3ccccc3)(c3cc(=O)n(-c4ccccc4)s3)O2)c(C)c1` (centres undefined), the TGI in assay [1] was 57.1 µM; in assay [2], over 100 µM; in assay [3], over 100 µM; in [4] it was 89.5 µM; in [5], 52.4 µM; in assay [6], over 100 µM. In addition, the TGI in assay [7] was over 100 µM; in [8], over 100 µM; in [9], over 100 µM; in assay [10] it was 53.4 µM.
As for `C[C@@H]1CC[C@H]2C(COCCOCC3=C(C(F)(F)F)O[C@@H]4O[C@@]5(C)CC[C@H]6[C@H](C)CC[C@@H]3[C@@]46OO5)=C(C(F)(F)F)O[C@@H]3O[C@@]4(C)CC[C@@H]1[C@]32OO4`, the GI50 in [1] was 0.102 µM; in assay [3], over 21.1 µM; in assay [4] it was over 100 µM; in assay [5] it was 0.224 µM; in [6], over 100 µM; in [7] it was under 0.0202 µM. In addition, the values for the GI50 in assay [8], in assay [9] and in assay [10] were 0.176 µM, over 24 µM and 0.535 µM, respectively. The TGI in [1], in assay [2], in assay [3], in assay [4], in [5] and in [6] was over 100 µM in each case. Moreover, the TGI in assay [7], in [8], in assay [9] and in assay [10] was over 100 µM in each case.
With `CN(/N=C(\C(=O)O)c1ccccc1)C1=NCCCN1`, the TGI in assay [1], in assay [2], in assay [3], in assay [4], in assay [5] and in assay [6] was over 100 µM each time. For the same compound, the TGI in assay [7], in [8], in [9] and in assay [10] was over 100 µM each time.
Take `COc1ccc(N2C(=O)C3c4[nH]c5ccc(C)cc5c4C4CCC(C)CC4C3C2=O)cc1` (centres undefined): the TGI was over 100 µM in assay [1]; 37.2 µM in [2]; over 100 µM in assay [3]; over 100 µM in assay [4]; over 100 µM in assay [5]; over 100 µM in assay [6]. Besides, the TGI in assay [7], in [8] and in [10] was over 100 µM each time.
Consider `CCCC(=O)NC1=C(NCC)C(=O)c2ccccc2C1=O`, for which the TGI in assay [1], in assay [2], in assay [3], in assay [5], in assay [6] and in assay [7] was over 100 µM each time. Moreover, the TGI in assay [8], in assay [9] and in assay [10] was over 100 µM each time.
`CSc1nc(N)c(NC2OC(CO)C(O)C2O)c(=O)[nH]1` (centres undefined): the TGI in assay [1], in [2], in assay [3], in [4], in assay [5] and in [6] was over 100 µM throughout. Further, the TGI in assay [7], in assay [8] and in assay [9] was over 100 µM each time.
With `Cc1ccccc1N=Nc1ccc(N=Nc2c(O)ccc3ccccc23)c(C)c1`, the TGI in [1], in assay [2], in assay [3], in [4], in [5] and in assay [6] was over 100 µM throughout. Also, the TGI in assay [8], in assay [9] and in [10] was over 100 µM each time.
Take `C#CCOCC12C=CC(O1)C1C(=O)N(C)C(=O)C12` (centres undefined): the TGI in assay [1], in assay [2], in [3], in assay [5], in assay [6] and in assay [7] was over 100 µM in each case. In addition, the TGI in assay [8], in assay [9] and in assay [10] was over 100 µM throughout. For the same compound, in assay [2], the GI50 was > 100 µM and 20 µM.
For `O=C(NCCCCCCCCNC(=O)c1cc(-c2ccccc2)nc2ccccc12)c1cc(-c2ccccc2)nc2ccccc12`, the TGI in assay [1], in assay [2], in [3], in [5], in assay [6] and in assay [7] was over 100 µM in each case. The TGI in assay [8], in [9] and in assay [10] was over 100 µM each time.
As for `CN(C)c1ccc(N=Nc2ccc3nc[nH]c3c2)cc1`, the TGI was 82.1 µM in assay [1]; 74.2 µM in [2]; over 100 µM in assay [3]; over 100 µM in assay [4]; over 100 µM in [5]; 77.3 µM in [6]. For the same compound, the TGI was 37.4 µM in assay [7], over 100 µM in assay [8] and over 100 µM in assay [10].
For `COc1c2c(cc3oc(C)cc(=O)c13)OC(=N)C(C(N)=O)C2CC(=O)c1ccc(N)cc1` (centres undefined), the TGI in [1], in assay [2], in [3], in assay [4], in [5] and in assay [6] was over 100 µM throughout. Further, the TGI in assay [7] and in [8] was over 100 µM each time.
With `CN(C(=O)Cc1cc(Cl)c(Cl)cc1N=C=S)[C@H]1CCCC[C@@H]1N1CCCC1`, the TGI was 42.4 µM in [2]; 28.1 µM in assay [3]; 29.2 µM in [4]; 29.5 µM in assay [5]; 27.8 µM in assay [6]; 22 µM in assay [7]. Moreover, the TGI worked out at 27.8 µM in assay [8], 27.9 µM in assay [9] and 30.5 µM in [10].
